In US9233978B2, “6-fused heteroaryldihydropyrimidines for the treatment and prophylaxis of hepatitis B virus infection” (Hoffmann-La Roche Inc., priority 2014, dated 2016):
In brackets after ≈: the same amount, converted by molar mass.

How the values were obtained:
Lysa solubility = format: physicochemical; conditions: phosphate buffer, pH 6.5, aqueous buffer, thermodynamic from solid, 0.05 M phosphate buffer (pH 6.5)
Description: Samples were prepared in duplicate from 10 mM DMSO stock solutions. After evaporation of DMSO with a centrifugal vacuum evaporator, the residue was solved in 0.05 M phosphate buffer (pH 6.5), stirred for one hour and shook for two hours. After one night, the solution was filtered using a microtiter filter plate. Then the filtrate and its 1/10 dilution were analyzed by direct UV measurement or by HPLC-UV. […] The results were in μg/mL. In case the percentage of sample measured in solution after evaporation divided by the calculated maximum of sample amount was over 80%, the solubility was reported as higher than this value.

HBV = assay: Anti-HBV activity in vitro, HepG2.2.15 cells, extracellular HBV DNA by qPCR; format: cell-based; conditions: Hepatitis B virus, HepG2.2.15, 120 h, HepG2.2.15 cells; HBV replication inhibited by 50%, extracellular HBV DNA by qPCR; five days after compound treatment; read-out: EC50
Excerpt: HepG2.2.15 and HepDE19 are stably-transfected cell lines containing the HBV genome. Both cell lines are derived from the hepatoblastoma cell line Hep G2 (American Type Culture Collection, ATCC® HB-8065™) by the published procedures described in references: MA Selles et al. Proc. Natl. Acad. Sci. USA 1987, 84, 1005-1009 and H Guo et al. Journal of Virology 2007, 81, 12472-12484, respectively. Both cell lines were maintained in Dulbecco's modified Eagle's medium (DMEM)-F12 medium supplemented with 10% fetal bovine serum, 100 U/mL penicillin, 100 μg/mL streptomycin, and 0.5 mg/mL of G418.
While HepG2.2.15 cells constitutively support HBV replication and production of virus particles, HepDE19 cells are inducible by tetracycline. Addition of 1 μg/mL tetracycline in culture medium suppresses HBV replication in HepDE19 cells, whereas switching to tetracycline-free medium resumes this process.
HepG2.2.15 cells were seeded into 96-well plates (3×10^4 cells in 100 μL media per well) and incubated overnight at 37° C. The test compounds were serially half-log diluted in DMSO, then diluted 100 times in culture media. 100 μL of diluted compounds were added into the plates to reach 0.5% final concentration of DMSO in every well. Five days after compound treatment, culture supernatant was collected for further analysis.
For quantitative PCR detection of extracellular HBV DNA, 100 μL of culture supernatant was collected and processed in MagNA Pure 96 Nucleic Acid Purification System (Roche Applied Science) for viral DNA extraction. The extracted samples were subjected to HBV DNA quantification by qPCR.

[1] = Human microsomal metabolic stability; format: in vitro ADME; conditions: human microsomes 0.5 mg/mL, 1 μM test compound, NADPH, 37° C., pH 7.4, 0-30 minutes
Description: Human Microsomes (BD Gentest) were preincubated with test compound for 10 minutes at 37° C. in 100 mM phosphate buffer, pH 7.4. The reactions were initiated by adding NADPH or NADPH regenerating system to give a final incubation volume of 400 μL. For NADPH system, the final incubations contained 1 μM test compound, 0.5 mg/mL liver microsomal protein, 1 mM NADPH in 100 mM phosphate buffer, pH 7.4. For the NADPH regenerating system, the final incubations contained 1 μM test compound, 0.5 mg/mL liver microsomal protein, 3 mM glucose 6-phosphate, 1 mM NADP, 3 mM MgCl2 and 0.05 mg/mL glucose 6-phosphate dehydrogenase in 100 mM phosphate buffer, pH 7.4. After incubation times of 0, 3, 6, 9, 15 and 30 minutes at 37° C., 1 sample was obtained from each time point and 50 μL of each sample was removed and transferred to 150 μL of methanol solution which was maintained at 4° C. and contained 2 μM tolbutamide as internal standard. Following precipitation and centrifugation, the amount of compound remaining in the samples were determined by LC-MS/MS. Controls of no NADPH or no NADPH regenerating system at zero and 30 minutes were also prepared and analyzed.

## COC(=O)C1=C(CN2CCN3C(=O)N(CCCCC(=O)O)C[C@@H]3C2)NC(c2nccs2)=N[C@H]1c1ccc(F)cc1Cl [Example 80, 5-[(8aS)-7-[[(4R)-4-(2-chloro-4-fluoro-phenyl)-5-methoxycarbonyl-2-thiazol-2-yl-1,4-dihydropyrimidin-6-yl]methyl]-3-oxo-5,6,8,8a-tetrahydro-1H-imidazo[1,5-a]pyrazin-2-yl]pentanoic acid]
Lysa solubility
  solubility thermodynamic: > 616 µg/mL
HBV
  EC50: 32 nM
[1]
  Human Microsomal Clearance: 8.3 mL/min/kg

## COC(=O)C1=C(CN2CCN3C(=O)N(C(C)C)CC3(CC(=O)O)C2)NC(c2nccs2)=N[C@H]1c1ccc(F)cc1Cl (stereo partly drawn) [Example 31, 2-[7-[[(4R)-4-(2-chloro-4-fluoro-phenyl)-5-methoxycarbonyl-2-thiazol-2-yl-1,4-dihydropyrimidin-6-yl]methyl]-2-isopropyl-3-oxo-1,5,6,8-tetrahydroimidazo[1,5-a]pyrazin-8a-yl]acetic acid]
Lysa solubility
  solubility thermodynamic: > 775 µg/mL
HBV
  EC50: 100 nM
[1]
  Human Microsomal Clearance: 0.3 mL/min/kg

## CCOC(=O)C1=C(CN2CCN3C(=O)N(CC(OC)C(=O)O)C[C@@H]3C2)NC(c2nccs2)=N[C@H]1c1cccc(F)c1Cl (stereo partly drawn) [Example 78, 3-[(8aS)-7-[[(4R)-4-(2-chloro-3-fluoro-phenyl)-5-ethoxycarbonyl-2-thiazol-2-yl-1,4-dihydropyrimidin-6-yl]methyl]-3-oxo-5,6,8,8a-tetrahydro-1H-imidazo[1,5-a]pyrazin-2-yl]-2-methoxy-propanoic acid]
Lysa solubility
  solubility thermodynamic: > 793 µg/mL
HBV
  EC50: 387 nM
[1]
  Human Microsomal Clearance: 6.7 mL/min/kg

## CCOC(=O)C1=C(CN2CCN3C(=O)N(c4ccccc4C(=O)O)C[C@@H]3C2)NC(c2nccs2)=N[C@H]1c1cccc(F)c1Cl [Example 28, (R)-6-[(S)-2-(2-Carboxy-phenyl)-3-oxo-hexahydro-imidazo[1,5-a]pyrazin-7-ylmethyl]-4-(2-chloro-3-fluoro-phenyl)-2-thiazol-2-yl-1,4-dihydro-pyrimidine-5-carboxylic acid ethyl ester]
Lysa solubility
  solubility thermodynamic: 337 µg/mL (≈ 527 µM)
HBV
  EC50: 30 nM
[1]
  Human Microsomal Clearance: 4.4 mL/min/kg

## COC(=O)C1=C(CN2CCN3C(=O)N(C4CCC(C(=O)O)CC4)C[C@@H]3C2)NC(c2nccs2)=N[C@H]1c1ccc(F)cc1Cl (stereo partly drawn) [Example 72, 4-[(8aS)-7-[[(4R)-4-(2-chloro-4-fluoro-phenyl)-5-methoxycarbonyl-2-thiazol-2-yl-1,4-dihydropyrimidin-6-yl]methyl]-3-oxo-5,6,8,8a-tetrahydro-1H-imidazo[1,5-a]pyrazin-2-yl]cyclohexanecarboxylic acid]
Lysa solubility
  solubility thermodynamic: 551 µg/mL (≈ 873 µM)
HBV
  EC50: 9 nM
[1]
  Human Microsomal Clearance: 5.2 mL/min/kg

## CCOC(=O)C1=C(CN2CCN3C(=O)N(C(C)(C)C(=O)O)C[C@@H]3C2)NC(c2nccs2)=N[C@H]1c1cccc(F)c1Cl [Example 32, (R)-6-[(S)-2-(1-Carboxy-1-methyl-ethyl)-3-oxo-hexahydro-imidazo[1,5-a]pyrazin-7-ylmethyl]-4-(2-chloro-3-fluoro-phenyl)-2-thiazol-2-yl-1,4-dihydro-pyrimidine-5-carboxylic acid ethyl ester]
Lysa solubility
  solubility thermodynamic: > 701 µg/mL
HBV
  EC50: 199 nM
[1]
  Human Microsomal Clearance: 1.6 mL/min/kg

## COC(=O)C1=C(CN2CCN3C(=O)N(CC(C)(C)C(=O)O)C[C@@H]3C2)NC(c2nccs2)=N[C@H]1c1ccccc1Cl [Example 74, 3-[(8aS)-7-[[(4R)-4-(2-chlorophenyl)-5-methoxycarbonyl-2-thiazol-2-yl-1,4-dihydropyrimidin-6-yl]methyl]-3-oxo-5,6,8,8a-tetrahydro-1H-imidazo[1,5-a]pyrazin-2-yl]-2,2-dimethyl-propanoic acid]
Lysa solubility
  solubility thermodynamic: > 716 µg/mL
HBV
  EC50: 36 nM
[1]
  Human Microsomal Clearance: 1.0 mL/min/kg

## CCOC(=O)C1=C(CN2CCN3C(=O)N([C@@H]4CCCC4C(=O)O)C[C@@H]3C2)NC(c2nccs2)=N[C@H]1c1cccc(F)c1Cl (stereo in doubt) [Example 50, (1R,2R)-2-[(8aS)-7-[[(4R)-4-(2-chloro-3-fluoro-phenyl)-5-ethoxycarbonyl-2-thiazol-2-yl-1,4-dihydropyrimidin-6-yl]methyl]-3-oxo-5,6,8,8a-tetrahydro-1H-imidazo[1,5-a]pyrazin-2-yl]cyclopentanecarboxylic acid]
Lysa solubility
  solubility thermodynamic: 339 µg/mL (≈ 537 µM)
HBV
  EC50: 15 nM
[1]
  Human Microsomal Clearance: 3.6 mL/min/kg

## CCOC(=O)C1=C(CN2CCN3C(=O)N(C4(CC(=O)O)CC4)CC3C2)NC(c2nccs2)=N[C@H]1c1cccc(F)c1Cl (stereo in doubt) [Example 48, 2-[1-[(8aR)-7-[[(4R)-4-(2-chloro-3-fluoro-phenyl)-5-ethoxycarbonyl-2-thiazol-2-yl-1,4-dihydropyrimidin-6-yl]methyl]-3-oxo-5,6,8,8a-tetrahydro-1H-imidazo[1,5-a]pyrazin-2-yl]cyclopropyl]acetic acid]
Lysa solubility
  solubility thermodynamic: > 807 µg/mL
HBV
  EC50: 22 nM
[1]
  Human Microsomal Clearance: 3.8 mL/min/kg

## COC(=O)C1=C(CN2CCN3C(=O)N([C@H]4C[C@H](C(=O)O)C4)C[C@@H]3C2)NC(c2nccs2)=N[C@H]1c1ccc(F)cc1Cl [Example 39, 3-[(2S,8aR)-7-[[(4R)-4-(2-chloro-4-fluoro-phenyl)-5-methoxycarbonyl-2-thiazol-2-yl-1,4-dihydropyrimidin-6-yl]methyl]-3-oxo-5,6,8,8a-tetrahydro-1H-imidazo[1,5-a]pyrazin-2-yl]cyclobutanecarboxylic acid]
Lysa solubility
  solubility thermodynamic: > 770 µg/mL
HBV
  EC50: 30 nM
[1]
  Human Microsomal Clearance: 0.4 mL/min/kg

## CCOC(=O)C1=C(CN2CCN3C(=O)N(CC(C)C(=O)O)C[C@@H]3C2)NC(c2nccs2)=N[C@H]1c1ccccc1Cl (stereo partly drawn) [Example 20, 3-[(8aS)-7-[[(4R)-4-(2-chlorophenyl)-5-ethoxycarbonyl-2-thiazol-2-yl-1,4-dihydropyrimidin-6-yl]methyl]-3-oxo-5,6,8,8a-tetrahydro-1H-imidazo[1,5-a]pyrazin-2-yl]-2-methyl-propanoic acid]
Lysa solubility
  solubility thermodynamic: > 780 µg/mL
HBV
  EC50: 52 nM
[1]
  Human Microsomal Clearance: 0.1 mL/min/kg

## COC(=O)C1=C(CN2CCN3C(=O)N([C@H]4CCC[C@H]4C(=O)O)C[C@@H]3C2)NC(c2nccs2)=N[C@H]1c1ccc(F)cc1Cl [Example 51, (1R,2S)-2-[(8aS)-7-[[(4R)-4-(2-chloro-4-fluoro-phenyl)-5-methoxycarbonyl-2-thiazol-2-yl-1,4-dihydropyrimidin-6-yl]methyl]-3-oxo-5,6,8,8a-tetrahydro-1H-imidazo[1,5-a]pyrazin-2-yl]cyclopentanecarboxylic acid]
Lysa solubility
  solubility thermodynamic: 589 µg/mL (≈ 954 µM)
HBV
  EC50: 31 nM
[1]
  Human Microsomal Clearance: 2.0 mL/min/kg

## COC(=O)C1=C(CN2CCN3C(=O)N(C(C)(C)CC(=O)O)C[C@@H]3C2)NC(c2nccs2)=N[C@H]1c1ccc(F)cc1Cl [Example 33, 3-[(8aS)-7-[[(4R)-4-(2-chloro-4-fluoro-phenyl)-5-methoxycarbonyl-2-thiazol-2-yl-1,4-dihydropyrimidin-6-yl]methyl]-3-oxo-5,6,8,8a-tetrahydro-1H-imidazo[1,5-a]pyrazin-2-yl]-3-methyl-butanoic acid]
Lysa solubility
  solubility thermodynamic: > 748 µg/mL
HBV
  EC50: 30 nM
[1]
  Human Microsomal Clearance: 2.5 mL/min/kg

## COC(=O)C1=C(CN2CCN3C(=O)N(c4cccc(C(=O)O)c4)C[C@@H]3C2)NC(c2nccs2)=N[C@H]1c1ccc(F)cc1Cl [Example 29, (R)-6-[(S)-2-(3-Carboxy-phenyl)-3-oxo-hexahydro-imidazo[1,5-a]pyrazin-7-ylmethyl]-4-(2-chloro-4-fluoro-phenyl)-2-thiazol-2-yl-1,4-dihydro-pyrimidine-5-carboxylic acid methyl ester]
HBV
  EC50: 7 nM
[1]
  Human Microsomal Clearance: 0.3 mL/min/kg
